Patent US5786508A, “Substituted kynurenines and process for their preparation” (Pharmacia & Upjohn S.p.A., priority 1995, dated 1998)

How the values were obtained:
[1] = tested on: Kynurenine Aminotransferase (KAT); test: Determination of KAT activity inhibition in rat brain homogenate; assay type: biochemical; settings: 2 μM [3H]KYN, 2 h at 37° C., pH 8.0
Method: A) Determination of KAT activity inhibition in rat brain homogenate
KAT was measured as described in detail by Okuno et al. (Measurement of rat brain kynurenine amino-transferase at physiological kynurenine concentrations, J. Neurochem., 57, 533-540, 1991).
Briefly, animals were killed by decapitation and the brain tissue was homogenized (1:5 v/w in 5 mM Tris-acetate buffer, pH 8.0, containing 10 mM 2-mercaptoethanol and 50 μM pyridoxal 5'-phosphate) and incubated for 2 h at 37° C. in the presence of 2 μM [^3 H]KYN (30 nCi), 1 mM 2-oxoglutarate and 70 μM pyridoxal 5'-phosphate in 150 mM Tris-acetate buffer, pH 8.0. The reaction was terminated by the addition of trichloroacetic acid.
Newly synthesized [^3 H]KYNA was separated from [^3 H]KYN on a Dowex 50W cation-exchange column and quantitated by liquid scintillation spectrometry. Blanks were obtained by using tissue which had been heat-deactivated for 10 minutes in a boiling water bath.

KYNA production = test: Determination of inhibition of KYNA production by rat tissue slices (cerebral cortex); assay type: cell-based; settings: 50 μM L-KYN, 2 h at 37° C.
Method: B) Determination of inhibition of KYNA production by rat tissue slices
Routinely, slices (base 1×1 mm; weight 1.5 mg/slice) from the cerebral cortex were separated on ice and transferred to culture wells (10 slices/well) containing 1 ml of oxygenated Krebs-Ringer buffer (NaCl, 118.5 mM; KCl, 4.75 mM; CaCl2, 1.77 mM; MgSO4, 1.18 mM; NaH2 PO4, 12.9 mM; NaH2 PO4, 3 mM; glucose, 5 mM; pH 7.4). Subsequently, the tissue was preincubated for 10 min at 37° C. and incubated further for 2 h at 37° C., in the presence of 50 μM L-KYN in an oxygenated chamber, on a shaking water bath. Compounds of the present invention were included in the incubation mixture as needed. Following incubation, the culture wells were immediately placed on ice, and the slices were rapidly separated from the incubation medium. For KYNA determination, 1 ml samples of the incubation medium were immersed in a boiling water bath for 10 min, and the precipitated proteins were removed by centrifugation (8,730×g, 10 min). The supernatants were diluted (1:1, v/v) with 0.2M HCl and applied to Dowex 50W (hydrogen form, Sigma) cation-exchange columns (0.5×2 cm). Subsequently, the columns were washed with 1 ml of 0.1M HCl and 1 ml of water, and the fraction containing KYNA was eluted with 2 ml of water. The eluates were applied to a 3-μm C18 HPLC column (100×3.2 internal diameter, Bioanalytical Systems, West Lafayette, Ind., U.S.A.), and KYNA was isocratically eluted with a mobile phase containing 50 mM ammonium acetate and 5% methanol at a flow rate of 0.5 ml/min. Under these conditions, the retention time of KYNA was ≈7 min.
Data were recorded and calculated with a Hewlett-Packard 3390A integrator connected to a model 160 UV absorbance detector (Beckman Instruments, Berkeley, Calif., U.S.A.) set at 340 nm.

KAT = target: T1, KAT (Rattus norvegicus, UniProt Q08415); test: Kinetic analysis of KAT inhibitors using a partially purified enzyme preparation; assay type: biochemical; settings: KYN 2 μM to 2 mM; double reciprocal plots; pyruvate 1 mM; pH 8.0, 37° C.
T1 construct: a preparation of partially purified enzyme; from tissue; the cited method purifies from rat kidney and brain (own knowledge)
T1 sequence (Q08415 1-423): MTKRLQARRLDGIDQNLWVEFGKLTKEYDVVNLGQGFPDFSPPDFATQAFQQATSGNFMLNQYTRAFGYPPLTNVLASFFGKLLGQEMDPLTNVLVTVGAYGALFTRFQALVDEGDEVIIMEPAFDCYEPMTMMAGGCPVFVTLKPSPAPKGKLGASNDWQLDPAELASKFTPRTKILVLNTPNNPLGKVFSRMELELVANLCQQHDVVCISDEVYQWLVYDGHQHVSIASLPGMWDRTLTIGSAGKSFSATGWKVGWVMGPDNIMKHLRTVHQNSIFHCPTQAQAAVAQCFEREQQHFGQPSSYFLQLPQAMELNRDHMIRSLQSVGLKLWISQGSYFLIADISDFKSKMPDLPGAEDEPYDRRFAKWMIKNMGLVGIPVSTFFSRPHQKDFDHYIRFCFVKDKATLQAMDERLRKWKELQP
Method: C) Kinetic analysis of KAT inhibitors using a partially Purified enzyme Preparation (Brain Research, 534, 37-44 (1990)
The reaction mixture contained [^3 H]KYN (30 nCi), diluted with unlabelled KYN to yield a final concentration of 2 μM, 1 mM pyruvate, 70 μM pyridoxal 5'-phosphate, 150 mM Tris-acetate buffer, pH 8.0, and a preparation of partially purified enzyme in a total volume of 0.1 ml. Test compounds were included in the incubation mixture as needed. The reaction was started by the addition of pyruvate. After incubation for 2 h at 37° C., the reaction was terminated by the addition of 14 μl of 50% (w/w) trichloroacetic acid. Subsequently, 1 ml of 0.1M HCl was added and denaturated protein was removed by a 4-min centrifugation in a Beckman 52B microfuge. 1 ml of the resulting supernatant was applied to a Dowex 50W column (0.5×1.0 cm; H^+ form) and washed with 1 ml of 0.1M HCl, followed by 1 ml of distilled water. [^3 H]KYNA was eluted with 2 ml of distilled water and quantitated by liquid scintillation spectrometry. Enzyme measurements were performed in triplicate samples. […]
Kinetic experiments were performed using the standard KAT assay described above by varying the concentration of KYN between 2 μM and 2 mM in the absence or presence of set concentrations of test compounds. Double reciprocal plots were constructed and lines of best fit were determined by linear regression analysis.

[2] = tested on: glycine modulatory site of the N-methyl-D-aspartate (NMDA) receptor complex; settings: J. Neurochem., 52, 1319-1328, 1989; in words; cited from earlier work

Which “KYNA production % of inhibition” value ([1]; 100 μM) does the source give for Nc1ccc(Cl)cc1C(=O)CC(N)C(=O)O (centres unmarked) [FCE 27813, 2-amino-4-(2-amino-5-chlorophenyl)-4-oxo-butyric acid] here?
The value was 45%.

What about the “KYNA production % of inhibition” value ([1]; 1000 μM) of the same compound?
Its value is 81%.

What about the inhibition at 100 µM (KYNA production) of the same compound?
Its inhibition at 100 µM is 63%.

What about the inhibition at 1000 µM (KYNA production) of the same compound?
Its inhibition at 1000 µM is 84%.

And the Ki (KAT)?
Its Ki is 88 µM.

Which “KYNA production % of inhibition” value ([1]; 100 μM) does the source give for Cc1ccc(N)c(C(=O)CC(N)C(=O)O)c1 (centres unmarked) [FCE 27946, 2-amino-4-(2-amino-5-methylphenyl)-4-oxo-butyric acid] here?
Its value is 13%.

What about the “KYNA production % of inhibition” value ([1]; 1000 μM) of the same compound?
The value was 51%.

What about the inhibition at 1000 µM (KYNA production) of the same compound?
The inhibition at 1000 µM was 64%.

And the inhibition at 300 µM (KYNA production; at 300 μM (footnote *))?
The inhibition at 300 µM was 50%.

What does the source list for Nc1ccc(F)cc1C(=O)CC(N)C(=O)O (centres unmarked) [FCE 27949, 2-amino-4-(2-amino-5-fluorophenyl)-4-oxo-butyric acid]?
KYNA production % of inhibition ([1]; 100 μM): 30%; KYNA production % of inhibition ([1]; 1000 μM): 74%; inhibition at 100 µM (KYNA production): 48%; inhibition at 1000 µM (KYNA production): 70%

With CCc1ccc(N)c(C(=O)CC(N)C(=O)O)c1 (centres unmarked) [FCE 28026, 2-amino-4-(2-amino-5-ethylphenyl)-4-oxo-butyric acid] as the compound, how does the “KYNA production % of inhibition” value ([1]; 100 μM) read?
Its value is 30%.

What about the “KYNA production % of inhibition” value ([1]; 1000 μM) of the same compound?
The value was 78%.

And the inhibition at 100 µM (KYNA production)?
The inhibition at 100 µM was 8%.

And the inhibition at 1000 µM (KYNA production)?
The inhibition at 1000 µM was 49%.

With CCCc1ccc(N)c(C(=O)CC(N)C(=O)O)c1 (centres unmarked) [FCE 28244, 2-amino-4-(2-amino-5-n-propylphenyl)-4-oxo-butyric acid] as the compound, how does the “KYNA production % of inhibition” value ([1]; 100 μM) read?
Its value is 50%.

And the “KYNA production % of inhibition” value ([1]; 1000 μM)?
The value was 72%.

And the inhibition at 100 µM (KYNA production)?
Its inhibition at 100 µM is 27%.

And the inhibition at 1000 µM (KYNA production)?
The inhibition at 1000 µM was 70%.

With Nc1ccc(C2CCCCC2)cc1C(=O)CC(N)C(=O)O (centres unmarked) [FCE 28263, 2-amino-4-(2-amino-5-cyclohexylphenyl)-4-oxo-butyric acid] as the compound, how does the “KYNA production % of inhibition” value ([1]; 100 μM) read?
The value was 47%.

And the “KYNA production % of inhibition” value ([1]; 1000 μM)?
The value was 77%.

And the inhibition at 100 µM (KYNA production)?
Its inhibition at 100 µM is 28%.

And the inhibition at 1000 µM (KYNA production)?
Its inhibition at 1000 µM is 45%.

For Nc1ccc(Br)cc1C(=O)CC(N)C(=O)O (centres unmarked) [FCE 28264, 2-amino-4-(2-amino-5-bromophenyl)-4-oxo-butyric acid], which “KYNA production % of inhibition” value ([1]; 100 μM) is on record?
Its value is 52%.

What about the “KYNA production % of inhibition” value ([1]; 1000 μM) of the same compound?
The value was 83%.

What about the inhibition at 100 µM (KYNA production) of the same compound?
The inhibition at 100 µM was 58%.

What about the inhibition at 1000 µM (KYNA production) of the same compound?
The inhibition at 1000 µM was 72%.

With CC(C)c1ccc(N)c(C(=O)CC(N)C(=O)O)c1 (centres unmarked) [FCE 28441, 2-amino-4-(2-amino-5-isopropylphenyl)-4-oxo-butyric acid] as the compound, how does the “KYNA production % of inhibition” value ([1]; 100 μM) read?
The value was 45%.

And the “KYNA production % of inhibition” value ([1]; 1000 μM)?
Its value is 72%.

And the inhibition at 100 µM (KYNA production)?
The inhibition at 100 µM was 5%.

What about the inhibition at 1000 µM (KYNA production) of the same compound?
The inhibition at 1000 µM was 54%.

For Nc1ccc(Cl)cc1C(=O)C[C@@H](N)C(=O)O [FCE 28442, (R)-(+)-2-amino-4-(2-amino-5-chlorophenyl)-4-oxo-butyric acid], which “KYNA production % of inhibition” value ([1]; 1000 μM) is on record?
The value was 31%.

What about the inhibition at 1000 µM (KYNA production) of the same compound?
Its inhibition at 1000 µM is 45%.

With Nc1ccc(Cl)cc1C(=O)C[C@H](N)C(=O)O [FCE 28443, (S)-(-)-2-amino-4-(2-amino-5-chlorophenyl)-4-oxo-butyric acid] as the compound, how does the “KYNA production % of inhibition” value ([1]; 100 μM) read?
Its value is 61%.

What about the “KYNA production % of inhibition” value ([1]; 1000 μM) of the same compound?
Its value is 89%.

And the inhibition at 100 µM (KYNA production)?
Its inhibition at 100 µM is 67%.

And the inhibition at 1000 µM (KYNA production)?
Its inhibition at 1000 µM is 91%.

Which “affinity to the glycine modulatory site of the NMDA receptor complex” value [2] does the source give for O=C(O)c1cc(=O)c2ccccc2[nH]1 [KYNA, Kynurenic Acid] here?
The value was “particularly high affinity”.

Which Km (KAT) does the source give for Nc1ccccc1C(=O)C[C@H](N)C(=O)O [L-kynurenine, reference compound] here?
The Km was 369 µM.
